Assay [1] deals with T1, Avi-KRAS WT (1-169) GppNHp/RAF1 RBD-3xFLAG (52-151) (Homo sapiens, UniProt P01116).
T1 construct: Avi-KRAS WT (1-169)
In words: Raf1-KRAS WT-GppNHP disruption HTRF assay (Biological Example 1). The format is binding. The following applies: KRAS WT, GppNHp-loaded; class symbols. The essentials:
(§1)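 Using HTRF, the loss of KRAS–effector RAF1 complex was quantified in 50 mM Tris pH 7.5 buffer with 100 mM NaCl and 0.1% BSA. The protein step and reagent step ran 1 h each at room temperature. Activity normalized with DMSO taken as 100%.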

The target in assay [2] is T2, Avi-KRAS G12V (2-169) GTP/RAF1 RBD-3xFLAG (51-131) (Homo sapiens, UniProt P01116, G12V).
T2 construct: Avi-KRAS G12V (2-169)
T2 sequence (P01116 2-169 isoform P01116-2 G12V): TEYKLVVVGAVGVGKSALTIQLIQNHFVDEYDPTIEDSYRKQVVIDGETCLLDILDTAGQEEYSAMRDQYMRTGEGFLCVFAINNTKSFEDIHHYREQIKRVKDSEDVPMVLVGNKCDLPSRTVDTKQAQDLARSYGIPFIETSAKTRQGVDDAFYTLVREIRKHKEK
In words: Raf1-KRAS G12V-GTP disruption HTRF assay (Biological Example 3). The format is binding. The following applies: KRAS G12V, GTP-loaded. The gist of the method:
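An HTRF assay measured disruption of 50 nM Avi-KRAS (2-169)-GTP (WT, G12C, G12D or G12V) bound to RAF1 RBD-3xFLAG (51-131). Buffer was Tris pH 7.5 with 5 mM MgCl2 and 10% DMSO. Compounds (30–0.005 μM, 3-fold, 10 points) were incubated 1 h at room temperature, and activity is given as % of DMSO.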
(In general: In TR-FRET formats the signal depends on donor and acceptor labels being close together.)

A further assay deals with GP2d cells (KRAS G12D). In words: Cell-based pERK HTRF assay in GP2d cell (Biological Example 2). To be noted: GP2d, GP2d (KRAS G12D) cells. The gist of the method: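 60 min compound, 0.25% DMSO, 9-pt half-log curve from 1 μM or 100 nM; DMEM/10% FBS.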
For assay [3], the target named is T3, Avi-KRAS G12R (1-169) GppNHp/RAF1 RBD-3xFLAG (52-151) (Homo sapiens, UniProt P01116, G12R).
T3 construct: Avi-KRAS G12R (1-169)
T3 sequence (P01116 1-169 isoform P01116-2 G12R): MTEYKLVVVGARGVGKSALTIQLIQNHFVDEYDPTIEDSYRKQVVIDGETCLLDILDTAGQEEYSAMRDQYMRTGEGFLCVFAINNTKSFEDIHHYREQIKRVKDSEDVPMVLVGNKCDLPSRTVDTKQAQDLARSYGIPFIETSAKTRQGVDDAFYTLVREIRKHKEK
In words: Raf1-KRAS G12R-GppNHP disruption HTRF assay (Biological Example 1). The format is binding. To be noted: KRAS G12R, GppNHp-loaded; class symbols. The essentials:
as §1

The target in assay [4] is T4, Avi-KRAS G12D (1-169) GppNHp/RAF1 RBD-3xFLAG (52-151) (Homo sapiens, UniProt P01116, G12D).
T4 construct: Avi-KRAS G12D (1-169)
T4 sequence (P01116 1-169 isoform P01116-2 G12D): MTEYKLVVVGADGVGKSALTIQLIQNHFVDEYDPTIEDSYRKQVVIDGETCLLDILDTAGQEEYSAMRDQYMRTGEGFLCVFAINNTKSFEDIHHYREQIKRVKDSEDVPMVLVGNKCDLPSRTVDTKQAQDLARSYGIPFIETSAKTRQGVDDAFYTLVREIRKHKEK
In words: Raf1-KRAS G12D-GppNHP disruption HTRF assay (Biological Example 1). The format is binding. The following applies: KRAS G12D, GppNHp-loaded; class symbols. The essentials:
as §1

T1 sequence (P01116 1-169 isoform P01116-2): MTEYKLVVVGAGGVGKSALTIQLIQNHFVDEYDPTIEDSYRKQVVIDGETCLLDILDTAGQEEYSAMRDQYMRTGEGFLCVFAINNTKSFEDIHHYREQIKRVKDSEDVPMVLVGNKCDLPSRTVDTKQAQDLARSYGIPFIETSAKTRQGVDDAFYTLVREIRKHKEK

As to `CCN(c1nc(OC[C@@]23CCCN2C[C@H](F)C3)nc2c(F)c(-c3ccc(F)c4sc(N)c(C#N)c34)c(C(F)(F)F)cc12)[C@H]1CCN(C(=O)[C@@H]2CCO2)C1` (atropisomer, axis not shown) [Compound 603], the IC50 (commonly the concentration needed to halve the response being measured) was less than 100 nM in assay [1]; not above 100 nM in assay [2]; less than 100 nM in the assay on GP2d cells (KRAS G12D); less than 100 nM in the assay with GP2d cells (KRAS G12D) (pERK HTRF, class symbols); less than 100 nM in assay [3]; less than 100 nM in assay [4].
As to `CCN(c1nc(OC[C@@]23CCCN2C[C@H](F)C3)nc2c(F)c(-c3ccc(F)c4sc(N)c(C#N)c34)c(C(F)(F)F)cc12)[C@H]1C[C@@H]2CN(C)C(=O)N2C1` (atropisomer, axis not shown) [Compound 605], the IC50 is less than 100 nM in assay [1]; 100 to 1000 nM in assay [2]; less than 100 nM with GP2d cells (KRAS G12D); less than 100 nM in the assay with GP2d cells (KRAS G12D) (pERK HTRF, class symbols); less than 100 nM in assay [3]; less than 100 nM in assay [4].
Regarding `CCN(c1nc(OC[C@@]23CCCN2C[C@H](F)C3)nc2c(F)c(-c3ccc(F)c4sc(N)c(C#N)c34)c(C(F)(F)F)cc12)[C@H]1CCN(C(=O)N2CC(F)C2)C1` (atropisomer, axis not shown) [Compound 606], the IC50 in assay [1] was less than 100 nM; in assay [2], not above 100 nM; in the assay with GP2d cells (KRAS G12D), less than 100 nM; in the assay on GP2d cells (KRAS G12D) (pERK HTRF, class symbols) it was less than 100 nM; in assay [3] it was less than 100 nM; in assay [4], less than 100 nM.
On to `CCN(c1nc(OC[C@@]23CCCN2C[C@H](F)C3)nc2c(F)c(-c3ccc(F)c4sc(N)c(C#N)c34)c(C(F)(F)F)cc12)[C@H]1CCN(C(=O)N2CC(OC)C2)C1` (atropisomer, axis not shown) [Compound 607], for which the IC50 in assay [1] was less than 100 nM; in assay [2], not above 100 nM; in the assay on GP2d cells (KRAS G12D), less than 100 nM; with GP2d cells (KRAS G12D) (pERK HTRF, class symbols), less than 100 nM; in assay [3] it was less than 100 nM; in assay [4] it was less than 100 nM.
Turning to `CC(=O)N1CC[C@H](N(c2nc(OC[C@@]34CCCN3C[C@H](F)C4)nc3c(F)c(-c4ccc(F)c5sc(N)c(C#N)c45)c(C(F)(F)F)cc23)C2CC2)C1` (atropisomer, axis not shown) [Compound 608], the IC50 in assay [1] is 100 to 1000 nM; in assay [2], 100 to 1000 nM; in the assay with GP2d cells (KRAS G12D) it was less than 100 nM; with GP2d cells (KRAS G12D) (pERK HTRF, class symbols), less than 100 nM; in assay [3], 100 to 1000 nM; in assay [4] it was less than 100 nM.
With `C[C@H]1Cn2nc(C(=O)N(C)C)cc2CN1c1nc(OC[C@@]23CCCN2C[C@H](F)C3)nc2c(F)c(-c3ccc(F)c4sc(N)c(C#N)c34)c(C(F)(F)F)cc12` (atropisomer, axis not shown) [Compound 610], the half-maximal inhibitory concentration (IC50) in assay [1] is 100 to 1000 nM; in assay [2], 100 to 1000 nM; with GP2d cells (KRAS G12D) it was less than 100 nM; with GP2d cells (KRAS G12D) (pERK HTRF, class symbols), less than 100 nM; in assay [3], 100 to 1000 nM; in assay [4], less than 100 nM.
As for `CCN(c1nc(OC[C@@]23CCCN2C[C@H](F)C3)nc2c(F)c(-c3ccc(F)c4sc(N)c(C#N)c34)c(C(F)(F)F)cc12)[C@H]1CCN(C(=O)CC(F)F)C1` (atropisomer, axis not shown) [Compound 611], the IC50 in assay [1] was less than 100 nM; in assay [2], not above 100 nM; with GP2d cells (KRAS G12D), less than 100 nM; with GP2d cells (KRAS G12D) (pERK HTRF, class symbols) it was less than 100 nM; in assay [3], less than 100 nM; in assay [4] it was less than 100 nM.
On to `CCN(c1nc(OC[C@@]23CCCN2C[C@H](F)C3)nc2c(F)c(-c3ccc(F)c4sc(N)c(C#N)c34)c(C(F)(F)F)cc12)[C@H]1CC(=O)N(CC(F)F)C1` (atropisomer, axis not shown) [Compound 613], for which the IC50 in assay [1] is 100 to 1000 nM; in assay [2], not above 100 nM; in the assay with GP2d cells (KRAS G12D) it was less than 100 nM; with GP2d cells (KRAS G12D) (pERK HTRF, class symbols), less than 100 nM; in assay [3] it was 100 to 1000 nM; in assay [4], 100 to 1000 nM.
Regarding `CCN(c1nc(OC[C@@]23CCCN2C[C@H](F)C3)nc2c(F)c(-c3ccc(F)c4sc(N)c(C#N)c34)c(C(F)(F)F)cc12)[C@H]1CC(=O)N(C)C1` (atropisomer, axis not shown) [Compound 614], the IC50 in assay [1] is less than 100 nM; in assay [2], 100 to 1000 nM; in the assay on GP2d cells (KRAS G12D) it was less than 100 nM; in the assay with GP2d cells (KRAS G12D) (pERK HTRF, class symbols) it was less than 100 nM; in assay [3], less than 100 nM; in assay [4] it was less than 100 nM.
In the case of `CCN(c1nc(OC[C@@]23CCCN2C[C@H](F)C3)nc2c(F)c(-c3ccc(F)c4sc(N)c(C#N)c34)c(C(F)(F)F)cc12)[C@H]1CC(=O)N(C2CC2)C1` (atropisomer, axis not shown) [Compound 615], the IC50 is less than 100 nM in assay [1]; not above 100 nM in assay [2]; less than 100 nM in the assay with GP2d cells (KRAS G12D); less than 100 nM in the assay with GP2d cells (KRAS G12D) (pERK HTRF, class symbols); less than 100 nM in assay [3]; less than 100 nM in assay [4].
For `CCN(c1nc(OC[C@@]23CCCN2C[C@H](F)C3)nc2c(F)c(-c3ccc(F)c4sc(N)c(C#N)c34)c(C(F)(F)F)cc12)[C@H]1CCN(C(=O)N2CCN(C(C)=O)CC2)C1` (atropisomer, axis not shown) [Compound 619], the half-maximal inhibitory concentration (IC50) in assay [1] is less than 100 nM; in assay [2], 100 to 1000 nM; with GP2d cells (KRAS G12D), less than 100 nM; in the assay on GP2d cells (KRAS G12D) (pERK HTRF, class symbols), less than 100 nM; in assay [3], less than 100 nM; in assay [4], less than 100 nM.
With `CC(=O)N1CC[C@H](N(CCF)c2nc(OC[C@@]34CCCN3C[C@H](F)C4)nc3c(F)c(-c4ccc(F)c5sc(N)c(C#N)c45)c(C(F)(F)F)cc23)C1` (atropisomer, axis not shown) [Compound 622], the concentration for half-maximal inhibition (IC50) in assay [1] was less than 100 nM; in assay [2], 100 to 1000 nM; with GP2d cells (KRAS G12D), less than 100 nM; in the assay with GP2d cells (KRAS G12D) (pERK HTRF, class symbols), less than 100 nM; in assay [3] it was less than 100 nM; in assay [4] it was less than 100 nM.
`CCN1C[C@@H](N(C)c2nc(OC[C@@]34CCCN3C[C@H](F)C4)nc3c(F)c(-c4ccc(F)c5sc(N)c(C#N)c45)c(C(F)(F)F)cc23)CC1=O` (atropisomer, axis not shown) [Compound 636]: the IC50 in assay [1] is less than 100 nM; in assay [2], 100 to 1000 nM; with GP2d cells (KRAS G12D), less than 100 nM; with GP2d cells (KRAS G12D) (pERK HTRF, class symbols), less than 100 nM; in assay [3], less than 100 nM; in assay [4], less than 100 nM.
As to `CCN(c1nc(OC[C@@]23CCCN2C[C@H](F)C3)nc2c(F)c(-c3ccc(F)c4sc(N)c(C#N)c34)c(C(F)(F)F)cc12)[C@H]1CCN(C(=O)C2CN(C(C)=O)C2)C1` (atropisomer, axis not shown) [Compound 638], the IC50 in assay [1] was less than 100 nM; in assay [2], not above 100 nM; in the assay with GP2d cells (KRAS G12D) it was less than 100 nM; with GP2d cells (KRAS G12D) (pERK HTRF, class symbols), less than 100 nM; in assay [3], less than 100 nM; in assay [4], less than 100 nM.
On to `C=C(C)C(=O)N1CC[C@H](N(CC)c2nc(OC[C@@]34CCCN3C[C@H](F)C4)nc3c(F)c(-c4ccc(F)c5sc(N)c(C#N)c45)c(C(F)(F)F)cc23)C1` (atropisomer, axis not shown) [Compound 673], for which the half-maximal inhibitory concentration (IC50) in assay [1] is less than 100 nM; in assay [2] it was 100 to 1000 nM; in the assay with GP2d cells (KRAS G12D) it was less than 100 nM; with GP2d cells (KRAS G12D) (pERK HTRF, class symbols), less than 100 nM; in assay [3], less than 100 nM; in assay [4] it was less than 100 nM.
For the compound `C/C=C/C(=O)N1CC[C@H](N(CC)c2nc(OC[C@@]34CCCN3C[C@H](F)C4)nc3c(F)c(-c4ccc(F)c5sc(N)c(C#N)c45)c(C(F)(F)F)cc23)C1` (atropisomer, axis not shown) [Compound 674], the half-maximal inhibitory concentration (IC50) was less than 100 nM in assay [1]; not above 100 nM in assay [2]; 100 to 1000 nM in the assay with GP2d cells (KRAS G12D); less than 100 nM in the assay with GP2d cells (KRAS G12D) (pERK HTRF, class symbols); less than 100 nM in assay [3]; less than 100 nM in assay [4].

These data come from patent publication US20260042764A1, “COMPOSITIONS AND METHODS FOR INHIBITION OF KRAS” (TheRas, Inc., priority 2022, published 2026).
